This assay deals with T1, Bone morphogenetic protein 1 (Homo sapiens, UniProt P13497).
T1 sequence (P13497 whole entry): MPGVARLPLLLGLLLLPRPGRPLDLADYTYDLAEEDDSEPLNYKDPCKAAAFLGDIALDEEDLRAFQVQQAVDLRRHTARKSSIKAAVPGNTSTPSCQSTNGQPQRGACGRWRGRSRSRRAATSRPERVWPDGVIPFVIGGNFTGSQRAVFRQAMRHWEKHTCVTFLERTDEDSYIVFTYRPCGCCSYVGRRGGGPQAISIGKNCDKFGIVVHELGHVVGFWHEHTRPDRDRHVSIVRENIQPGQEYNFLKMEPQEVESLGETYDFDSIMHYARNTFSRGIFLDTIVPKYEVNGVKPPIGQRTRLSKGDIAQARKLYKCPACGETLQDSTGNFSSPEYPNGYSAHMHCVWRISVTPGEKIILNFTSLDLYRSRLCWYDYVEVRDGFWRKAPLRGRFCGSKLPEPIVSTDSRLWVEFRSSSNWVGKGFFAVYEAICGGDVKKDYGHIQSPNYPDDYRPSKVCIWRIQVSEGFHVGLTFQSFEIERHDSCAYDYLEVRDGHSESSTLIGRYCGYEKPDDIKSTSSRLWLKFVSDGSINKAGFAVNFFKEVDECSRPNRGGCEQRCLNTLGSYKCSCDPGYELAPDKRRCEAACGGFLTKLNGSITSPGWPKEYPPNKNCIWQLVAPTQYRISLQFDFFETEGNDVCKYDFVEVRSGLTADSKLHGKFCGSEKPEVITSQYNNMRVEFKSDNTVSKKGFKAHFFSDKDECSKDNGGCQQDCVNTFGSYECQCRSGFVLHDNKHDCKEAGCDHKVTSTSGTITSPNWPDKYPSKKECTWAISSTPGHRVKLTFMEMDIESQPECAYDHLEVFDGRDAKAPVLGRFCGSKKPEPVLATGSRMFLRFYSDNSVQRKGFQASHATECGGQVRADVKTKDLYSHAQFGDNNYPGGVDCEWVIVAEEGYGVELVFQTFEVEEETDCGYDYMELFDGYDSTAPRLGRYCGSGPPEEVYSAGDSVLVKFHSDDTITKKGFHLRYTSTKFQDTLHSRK
The assay can be described thus: Inhibitory activity against procollagen C-proteinase (PCP).
On to `C=CCOc1ccc2ccc(CN([C@H](Cc3cccs3)C(=O)NO)S(=O)(=O)c3ccc(OC)cc3)cc2c1`, for which inhibition was half-maximal at 0.29 µM (IC50).

Take `COC(=O)c1ccc(CN([C@H](Cc2cccs2)C(=O)O)S(=O)(=O)c2ccc(OC)cc2)cc1`: the IC50 (commonly the concentration needed to halve the response being measured) is 0.21 µM. The same measure for `COc1ccc(S(=O)(=O)N(Cc2cc(C)on2)[C@H](Cc2cccs2)C(=O)O)cc1`: 0.12 µM. The compound `COc1ccc(S(=O)(=O)N(Cc2ccc3c(c2)OCO3)[C@H](Cc2ccco2)C(=O)O)cc1` yielded an IC50 of 0.47 µM. The same measure for `COc1ccc(S(=O)(=O)N(Cc2ccc3c(c2)OCO3)[C@H](Cc2cccs2)C(=O)O)cc1`: 0.024 µM; for `COc1ccc(S(=O)(=O)N(Cc2ccc(C)cc2)[C@H](Cc2cccs2)C(=O)NO)cc1`: 0.11 µM; for `COc1ccc(S(=O)(=O)N(Cc2ccc3c(c2)OCO3)[C@H](Cc2ccc(Br)s2)C(=O)O)cc1`: 0.67 µM. The same measure for `COc1ccc(S(=O)(=O)N(Cc2ccc(F)c(F)c2)[C@H](Cc2cccs2)C(=O)NO)cc1`: 0.08 µM.

`COc1ccc(S(=O)(=O)N(Cc2cccc(Cl)c2)[C@H](Cc2cccs2)C(=O)NO)cc1` had an IC50 of 0.39 µM. To `COc1ccc(S(=O)(=O)N(Cc2ccc(Cl)c(Cl)c2)[C@H](Cc2cccs2)C(=O)NO)cc1` belongs 0.44 µM; to `C#CC[C@H](C(=O)O)N(Cc1ccc2c(c1)OCO2)S(=O)(=O)c1ccc(OC)cc1`, 0.01 µM. `CCN(CC)C(=N)NCCC[C@H](C(=O)O)N(Cc1ccc2c(c1)OCO2)S(=O)(=O)c1ccc(OC)cc1`: the midpoint of inhibition, the IC50, lay at 0.028 µM.
